Results published in US20210244773A1, “DENTAL PULP STEM CELLS AND USES THEREOF” (priority 2018, published 2021).
Where “and” joins values, the source holds several entries; their conditions need not be identical. Identical values can stand only once.

Tests used:
Format in all cases: cell-based, human
[1] = tested on: DPSC; test: DPSC neuronal differentiation with TNF-alpha, lipoxin A4 or resolvin D1, flow cytometry (Example 3); conditions: for TNF-alpha-induced decrease in β III-tubulin expression: FIG. 6, both 10 and 100 nM, p<0.05; for neuronal differentiation of DPSC without TNF-alpha: added alone at either dose (10 or 100 nM), data not shown
Procedure: DPSC were isolated from the teeth of 7 healthy donors extracted during routine dental care. Samples were selected from our tooth biorepository based on the following donor characteristics: absence of medical comorbidities, no active medication use (aside from vitamin supplements), and absence of periodontal disease or tooth decay. The extracted pulp were plated and then cultured in basal medium, DMEM/F12+15% FBS supplemented with 100 U/mL non-essential amino acids (Gibco Life Technologies), 100 U/mL penicillin and streptomycin, and glutamine (Gibco Life Technologies). Outgrowing fibroblast-like cells appeared after 3-4 days and at that point the pulp was replated. The outgrowing cells were passaged after reaching 80% confluence and passage 4 was used for all experiments. Cells were seeded in duplicate with 2×10^4 cells/well. Neuronal differentiation was induced by replacing DMEM/F12+15% FBS culture media with neuronal differentiation media (NeuroCult NS-A Differentiation Kit-Human, StemCell Technologies Inc., Tukwila, Wash., USA) 48 hours after seeding. Cells were cultured under neuronal induction conditions for up to 21 days with culture media changed twice a week.
Varying concentrations of TNF-alpha (1, 10, 25, and 100 ng/mL, PeproTech, Rocky Hill, N.J., USA), lipoxin A4 (10 and 100 nM, Cayman Chemical, Ann Arbor, Mich., […], Cayman Chemical, Ann Arbor, Mich., USA) were added to the culture of both differentiated and non-differentiated cells starting 48 hours after seeding. In some experiments cells were treated with both TNF-alpha and lipoxin A4 or resolvin D1.
Expression of stem cell and neuronal cell markers was determined by flow cytometry. […] Cells were incubated for 1 hour at room temperature with the following primary antibodies against stem cell markers: rabbit anti-CD44 (Abcam, 1:30) and rabbit anti-OCT4 (Abcam, 1:200) and neuronal markers: rabbit anti-nestin (Abcam, 1:100), rabbit anti-doublecortin (Abcam, 1:50), mouse anti-β III-tubulin (Abcam, 1:100), and rabbit anti-NeuN (Abcam, 1:100). Fluorescence was achieved by incubating with secondary antibodies (Life Tech, Carlsbad, Calif., goat anti-rabbit IgG or goat anti-mouse IgG, dilution 1:500) for 1 hour at room temperature in a dark room. Cells were then subjected to flow cytometry and the percentage of cells expressing each marker was calculated.
Each analysis was performed in duplicate using cells from all donors. Median and interquartile ranges were calculated for each condition. Mann-Whitney tests were used for all statistical analyses; p<0.05 was considered significant.

[2] = tested on: dental pulp stem cells; test: MTT metabolic activity assay of dental pulp stem cells
Procedure: The metabolic activity of cells was determined by 3-(4,5-dimethylthiazol-2-yl)-2,5-diphenyltetrazolium bromide (MTT) assay at various time points to assess TNF-α toxicity on dental pulp stem cells. Cells were incubated for 4 hours in 5 mg/mL thiazolyl blue tetrazolium bromide (Sigma Aldrich, St. Louis, Mo., USA), the precipitate was suspended with 2-propanol (Sigma Aldrich, St. Louis, Mo., USA), and absorbance was determined in triplicate.

[3] = tested on: DPSC expression of IL-6, IL-8, IL-1β; test: Inflammatory cytokine gene expression in DPSC by real-time PCR; conditions: all doses (1, 10, 25, 100 ng/ml), 24 hours
Procedure: Induction of inflammatory cytokine gene expression was determined by real-time PCR to optimize TNF-α treatment conditions. Total RNA was extracted from cells using Trizol (Life Technologies). 10 μL total RNA was reverse transcribed to cDNA using iScript cDNA Synthesis Kit (Bio-Rad, Hercules, Calif., USA). 1 μL cDNA used as template for real-time PCR amplification reactions using the iQ SYBR Green Supermix (Bio-Rad) in combination with […] of each gene-specific primer, according to manufacturer's instructions. Glyceraldehyde 3-phosphate dehydrogenase (GAPDH) was used as endogenous control. PCR reactions were conducted in duplicate using the following conditions: initial denaturation for 3 min at 95° C. followed by 40 cycles of 15 sec denaturation at 95° C. and 60 sec annealing at 60° C. Relative quantification was used for statistical analyses. The following primers were used: […]

[4] = 25 ng/ml TNF-alpha, 21 days of differentiation, versus absence of TNF-alpha

Compound	β III-tubulin expression (percent of cells) ([1]; 25 ng/ml TNF-alpha + 10 nM lipoxin A4) [%]	increase in β III-tubulin expression versus TNF-alpha alone ([1]; 25 ng/ml TNF-alpha + 10 nM lipoxin A4, p=0.02) [%]	β III-tubulin expression versus TNF-alpha alone ([1]; 25 ng/ml TNF-alpha + lipoxin A4 100 nM, p=0.03)	TNF-alpha-induced decrease in β III-tubulin expression [1]	neuronal differentiation of DPSC without TNF-alpha [1]	increase in β III-tubulin expression versus TNF-alpha alone ([1]; 25 ng/ml TNF-alpha + 100 nM resolvin D1, p=0.02) [%]	β III-tubulin expression (percent of cells) ([1]; 25 ng/ml TNF-alpha + 100 ng/ml resolvin D1) [%]	β III-tubulin expression versus TNF-alpha alone ([1]; 25 ng/ml TNF-alpha + resolvin D1 10 nM, p=0.09)	cells expressing the early marker doublecortin ([1]; 25 ng/ml TNF-alpha, 21 days of differentiation)	expression of early neuronal marker nestin [1, 4]	expression of stem cell marker CD44 [1, 4]	expression of stem cell marker OCT 3/4 [1, 4]	decrease in differentiated cells expressing β III-tubulin ([1]; 25 ng/ml TNF-alpha, neuronal differentiation, decrease)	β-III tubulin expression ([1]; FIG. 6, presence of TNF-alpha)	β III-tubulin expression (percent of cells) ([1]; neural induction with 25 ng/ml TNF-alpha alone) [%]	toxicity to DPSC (succinic dehydrogenase metabolic activity) ([2]; TNF-alpha treatment)	metabolic activity (MTT) ([2]; neural induction with 25 ng/ml or 100 ng/ml TNF-alpha, 10 days, versus absence of TNF-alpha)	DPSC expression of IL-6 ([3]; FIG. 4A)	DPSC expression of IL-8 ([3]; FIG. 4B)	DPSC expression of IL-1β ([3]; FIG. 4C)
CCCCC[C@H](O)/C=C/C=C\C=C\C=C\[C@@H](O)[C@@H](O)CCCC(=O)O [lipoxin A4]	59	84	Results were similar	mitigated	no reduction or improvement	–	–	–	–	–	–	–	–	–	–	–	–	–	–	–
CC/C=C\C[C@H](O)/C=C/C=C\C=C\C=C\[C@@H](O)[C@@H](O)C/C=C\CCC(=O)O [resolvin D1]	–	–	–	mitigated	no reduction or improvement	78	57	approached significance	–	–	–	–	–	–	–	–	–	–	–	–
TNF-alpha	–	–	–	–	–	–	–	–	non-significant increase	no difference	no difference	no difference	70% and 59%	significant decrease	32	not toxic	significantly greater metabolic activity	significant increases	significant increases	significant increases
